How the values were obtained:
Tobacco suspension cells = assay: Plant cell culture alkalinization assay; type: cell-based
Description: Plant Cell Culture Alkalinization Assay: Tobacco suspension cells were maintained in MS media. The media was adjusted to pH 5.6 with KOH. Three ml aliquots of one week old cultures were transferred into 35 ml of media in 125 ml flasks and placed on an orbital shaker at 160 rpm in the dark for growth. Cells were used for assay 3-5 days after transfer (cell density was approximately 0.5 to 1.5×10^6 cells/ml). One ml of cells was aliquoted into each well of 24-well cell culture cluster plates (Costar, number 3527, Corning Incorporated, Corning, N.Y.) and allowed to equilibrate on an orbital shaker at 160 rpm for 1 hr. Aliquots (1 to 10 μl) of fractions to be tested were added to the cells and the increasing pH change of the medium (medium alkalinization) was detected with time using an Orion Model EA940 pH meter with an Orion semi-micro pH electrode (Catalog number 8103BN, Orion, Beverly, Mass.).

[1] = system: liquid tomato cell culture; assay: Alkalinization of a liquid tomato cell culture; type: cell-based
tomato apical meristems = assay: Growth of excised tomato apical meristems in liquid culture; type: cell-based, Lycopersicon esculentum; settings: for growth of isolated tomato apical meristems: 100 nM peptide in liquid media, evaluated on the 16th day, compared with control peptide
Description: Tomato plants (Lycopersicon esculentum cv. Castlemart) were grown in a growth chamber with 17 hours of light (300 μmol m^−2s^−1) per day at 28° C. and seven hour nights at 18° C. Apical meristems were excised from shoot tips of two week old tomato plants. Shoot tips (1-2 cm long) were surface sterilized using 70% ethanol solution for 20-30 seconds, followed by a 20 minute incubation in a 1.5% (v/v) commercial bleach solution. Shoot tips were washed once in sterilized water after the ethanol treatment, and four times after bleaching. Apical meristems (including meristematic tissue, dome, with a leaf primordium) were carefully isolated under a stereoscope.
Isolated meristems were immediately inoculated into a liquid media (MS salts and vitamin mixture powder (Life Technologies) and 20 g/L of sucrose) containing either tomato RALF (100 nM) (SEQ ID NO: 4), or a control peptide (100 nM) that was not capable of stimulating meristem growth. Four meristems were inoculated in a 125 mL Erlenmeyer flask containing 10 mL of media, and flasks were gently shaken at 60 rpm. Sixteen meristems were tested for each treatment in four separate flasks. The liquid media was replaced with fresh media on the 5th, 12th and 14th days of the experiment. The experiment was evaluated and terminated on the 16th day.

Sequence	alkalinization of the medium of the liquid plant cell culture (pH change) (Tobacco suspension cells)	alkalinization of a liquid tomato cell culture [1]	growth of isolated tomato apical meristems (tomato apical meristems)	growth of isolated tomato apical meristems (tomato apical meristems; listed as tomato RALF (SEQ ID NO: 4))	rate of meristem tissue growth in the presence versus the absence of the polypeptide (tomato apical meristems; experiments of Example 3)
ATKKYISYGALQKNSVPCSRRGASYYNCKPGAQANPYSRGCSAITRCRS (listed as Nicotiana tabacum) [tobacco RALF polypeptide, approximately 5 kDa polypeptide isolated from tobacco leaves]	rapidly induced alkalinization				
ATKKYISYGALQKNSVPCSRRGASYYNCKPGAQANPYTRGCSAITRCRS (listed as Lycopersicon esculentum) [tomato RALF polypeptide (SEQ ID NO: 4), chemically synthesized tomato RALF polypeptide]		induce alkalinization	stimulates the growth	stimulated growth	at least twice as fast

Reference: US20030217389A1, “Novel peptides and methods of use” (priority 2002, published 2003)
